Where two headings read alike, the source gives them in different places.
How the values were obtained:
U937 cells = assay: Inhibitory activity against programmed necroptosis of U937 cells induced by TNF-α; assay type: cell-based, human
Description: The U937 cell strain which was used in the following Testing Examples was derived from ATCC, No.: CRL-1593.2, batch No.: 63479999, culture medium: RPMI-1640+10% FBS.
The compound was dissolved in DMSO to prepare a 10 mM stock solution. The stock solution was diluted in 3.16 folds with DMSO to a series of gradient concentrations. Then, the resultant solution was diluted in 250 folds with a culture medium to prepare a working solution. The U937 cells were inoculated in a 384-well plate at 5000/well. The compound at respective concentration was added to each of the cells, and was mixed with the cells homogeneously. 100 ng/ml human TNF-α and 25 μM Q-VD-Oph were added simultaneously to induce programmed necroptosis of the cells. The final concentration of DMSO was 2%. The cells were placed in the incubator at 37° C. and 5% CO2 for further culture of 48 hours. Celltiter-Glo reagent was used for detection. After adequate pyrolysis reaction, the chemiluminescence readout value was recorded by a microplate reader. The survival rate was calculated from the detection results using the equation as follows: SR (%)=(RLU compound−RLU blank)/(RLU high control−RLU blank)×100%. The survival rate was plotted against the final concentration of respective compound using a 4-parameter fitting to calculate the inhibitory IC50 of the compound against programmed necroptosis of cells induced by TNF-a.

RIPK1 enzyme = target: T1, RIPK1 enzyme (Homo sapiens, UniProt Q13546); assay: Inhibitory activity of the compounds against RIPK1 enzyme (33P-ATP, MBP substrate); assay type: biochemical; details: 36 nM RIPK1, 0.33 mg/ml MBP, 155 μM P33-labeled ATP, room temperature 2 hours
T1 construct: purchased Eurofins 16-022
T1 sequence (Q13546 1-671): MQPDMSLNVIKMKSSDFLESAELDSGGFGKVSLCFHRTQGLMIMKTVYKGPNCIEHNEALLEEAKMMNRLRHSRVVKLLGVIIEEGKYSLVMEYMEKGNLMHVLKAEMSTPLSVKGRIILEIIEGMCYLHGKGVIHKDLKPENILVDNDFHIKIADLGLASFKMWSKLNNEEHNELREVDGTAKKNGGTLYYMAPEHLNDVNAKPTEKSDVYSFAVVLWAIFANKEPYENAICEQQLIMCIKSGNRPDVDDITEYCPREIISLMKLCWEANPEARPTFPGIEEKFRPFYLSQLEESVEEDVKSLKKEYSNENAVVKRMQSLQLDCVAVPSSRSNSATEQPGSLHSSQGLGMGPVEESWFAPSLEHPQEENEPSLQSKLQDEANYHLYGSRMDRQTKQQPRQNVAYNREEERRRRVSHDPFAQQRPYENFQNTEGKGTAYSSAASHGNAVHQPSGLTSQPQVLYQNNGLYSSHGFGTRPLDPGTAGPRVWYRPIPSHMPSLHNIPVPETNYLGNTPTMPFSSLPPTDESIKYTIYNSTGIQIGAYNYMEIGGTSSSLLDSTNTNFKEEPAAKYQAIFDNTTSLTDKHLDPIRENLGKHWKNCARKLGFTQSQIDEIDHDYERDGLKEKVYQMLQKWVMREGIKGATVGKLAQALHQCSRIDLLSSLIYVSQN
Description: The test compound was dissolved in DMSO to prepare a 10 mM stock solution. The stock solution was diluted in 3.16 folds with DMSO to a series of gradient concentrations. Then, the resultant solution was diluted in 50 folds with MOPS buffer pH 7.0 to prepare a working solution. The working solution was mixed with 36 nM RIPK1 (final concentration) and 0.33 mg/ml substrate MBP homogeneously. Thereafter, 10 mM magnesium ion and 155 μM P^33 isotopically labeled ATP were added for the reaction. The final concentration of DMSO was 2%. After the reaction was carried out at room temperature for 2 hours phosphoric acid was added to terminate the reaction. The final reaction system was tested using a liquid scintillation counter after treatment. The result obtained by subtracting a blank control from the tested value was converted to activity percentage as compared to the readout value of control group. The activity percentage was plotted against the final concentration of respective compound using a 4-parameter fitting to obtain the inhibitory IC50 of the compound against RIPK1 enzyme.

L929 cells = assay: Inhibitory activity against programmed necroptosis of L929 cells induced by TNF-α; assay type: cell-based; details: Mus musculus, 30 ng/ml murine TNF-α and 15 μM Z-VAD, 6 hours, CellTiter-Glo survival rate, read-out: L929 AbIC50
Description: The compound was dissolve in DMSO to prepare a 10 mM stock solution. The stock solution was diluted in 3.16 folds with DMSO to a series of gradient concentrations. Then, the resultant solution was diluted in 100 folds with a culture medium to prepare a working solution. The L929 cells were inoculated in a 384-well plate at 10000/well. The compound at respective concentration was added to each of the wells, and was mixed with the cells homogeneously. 30 ng/ml murine TNF-α and 15 μM Z-VAD were added simultaneously to induce programmed necroptosis of the cells. The final concentration of DMSO was 2%. The cells were placed in an incubator at 37° C. and 5% CO2 for further culture of 6 hours. CellTiter-Glo reagent was used for detection. After adequate pyrolysis reaction, the chemiluminescence readout value was recorded by a microplate reader. The survival rate was calculated from the detection results using the equation as follows: SR (%)=(RLU compound −RLU blank)/(RLU high control−RLU blank)×100%. The survival rate was plotted against the final concentration of respective compound using a 4-parameter fitting to calculate the inhibitory IC50 of the compound against programmed necroptosis of cells induced by TNF-a.

[1] = Homo sapiens, U-937, 48 h, 100 ng/ml human TNF-α and 25 μM Q-VD-Oph, 48 hours, CellTiter-Glo survival rate, read-out: U937 IC50
[2] = read-out: U937 IC50, 100 ng/ml human TNF-α and 25 μM Q-VD-Oph, 48 hours, CellTiter-Glo survival rate

IC50 (RIPK1 enzyme)	Structure (SMILES)	IC50 (U937 cells; [1])	IC50 (L929 cells)	also measured
36 nM	COc1ncc(-c2ccc3nc(NC(=O)C4CC4)sc3c2)cc1C(=O)NC(C)c1ccccc1OC(F)(F)F (single isomer, unassigned) [Compound Z6, 5-(2-(cyclopropylcarbonylamino)benzo[d]thiazol-6-yl)-2-methoxy-N-(1-(2-(trifluoromethoxy)phenyl)ethyl)nicotinamide]	0.008 µM	–	–
64 nM	Cc1ncc(C(=O)NC(C)c2ccccc2OC(F)(F)F)cc1-c1ccc2nc(N)sc2c1 (centres unmarked) [Compound Z10, 5-(2-aminobenzo[d]thiazol-6-yl)-6-methyl-N-(1-(2-(trifluoromethoxy)phenyl)ethyl)nicotinamide]	–	–	–
–	COc1ncc(-c2ccc3nc(N)sc3c2)cc1C(=O)N1CCC[C@H](Cc2ccc(F)cc2)C1 [Compound Z17-1]	0.009 µM	10 nM	–
32 nM	COc1ncc(-c2ccc3nc(N)sc3c2)cc1C(=O)NC(C)c1cccc(OC(F)(F)F)c1 (centres unmarked) [Compound Z3, 5-(2-aminobenzo[d]thiazol-6-yl)-2-methoxy-N-(1-(3-(trifluoromethoxy)phenyl)ethyl)nicotinamide]	–	–	–
34 nM	Nc1nc2ccc(-c3cnc4c(c3)C(=O)N(Cc3cc(F)cc(F)c3OC3CC3)CC4)cc2s1 [Compound Z64, 3-(2-aminobenzo[d]thiazol-6-yl)-6-(2-cyclopropoxy-3,5-difluorobenzyl)-7,8-dihydro-1,6-naphthyridin-5(6H)-one]	0.004 µM	3 nM	–
–	COc1ncc(-c2ccc3nc(N)sc3c2)cc1C(=O)NCc1cc(F)cc(F)c1OCC(C)C [Compound Z49, 5-(2-aminobenzo[d]thiazol-6-yl)-N-(3,5-difluoro-2-isobutoxybenzyl)-2-methoxynicotinamide]	0.006 µM	37 nM	–
23 nM	COc1ncc(-c2ccc3nc(N)sc3c2)cc1C(=O)NCc1ccccc1OC(F)(F)F [Compound Z2, 5-(2-aminobenzo[d]thiazol-6-yl)-2-methoxy-N-(2-(trifluoromethoxy)benzyl)nicotinamide]	0.038 µM	–	–
84 nM	COc1ncc(C(=O)NC(C)c2ccccc2OC(F)(F)F)cc1-c1ccc2nc(N)sc2c1 (centres unmarked) [Compound Z7, 5-(2-aminobenzo[d]thiazol-6-yl)-6-methoxy-N-(1-(2-(trifluoromethoxy)phenyl)ethyl)nicotinamide]	–	–	–
–	Cn1ncc2c(-c3ccn4nc(N)nc4c3)cc(C(=O)NCc3cc(F)ccc3OC3CCCC3)cc21 [Compound Z31, 4-(2-amino-[1,2,4]triazolo[1,5-a]pyridin-7-yl)-N-(2-(cyclopentyloxy)-5-fluorobenzyl)-1-methyl-1H-indazole-6-carboxamide]	0.002 µM	41 nM	–
39 nM	Nc1nc2ccc(-c3cnc4c(c3)C(=O)N(Cc3cc(OC(F)(F)F)ccc3F)CC4)cc2s1 [Compound Z55, 3-(2-aminobenzo[d]thiazol-6-yl)-6-(2-fluoro-5-(trifluoromethoxy)benzyl)-7,8-dihydro-1,6-naphthyridin-5(6H)-one]	0.008 µM	–	–
17 nM	COc1ncc(-c2ccc3nc(N)sc3c2)cc1C(=O)NCc1cccc(OC(F)(F)F)c1 [Compound Z4, 5-(2-aminobenzo[d]thiazol-6-yl)-2-methoxy-N-(3-(trifluoromethoxy)benzyl)nicotinamide]	–	–	–
43 nM	Nc1nc2ccc(-c3cnc4c(c3)C(=O)N(Cc3cc(C(F)(F)F)ccc3F)CC4)cc2s1 [Compound Z65, 3-(2-aminobenzo[d]thiazol-6-yl)-6-(2-fluoro-5-(trifluoromethyl)benzyl)-7,8-dihydro-1,6-naphthyridin-5(6H)-one]	0.048 µM	–	–
60 nM	CC(NC(=O)c1cncc(-c2ccc3nc(N)sc3c2)c1)c1ccccc1OC(F)(F)F (centres unmarked) [Compound Z9, 5-(2-aminobenzo[d]thiazol-6-yl)-N-(1-(2-(trifluoromethoxy)phenyl)ethyl)nicotinamide]	–	–	–
60 nM	COc1ncc(-c2ccc3nc(NC(=O)C4CC4)sc3c2)cc1C(=O)N[C@@H](C)c1ccccc1OC(F)(F)F (single isomer, unassigned) [Compound Z6-1]	0.003 µM	–	–
36 nM	COc1ncc(-c2ccc3nc(NC(=O)C4CC4)sc3c2)cc1C(=O)NC(C)c1ccccc1OC(F)(F)F (centres unmarked) [Compound Z56, 5-(2-(cyclopropylformamido)benzo[d]thiazol-6-yl)-2-methoxy-N-(1-(2-(trifluoromethoxy)phenyl)ethyl)nicotinamide]	0.008 µM	–	–
–	Cn1ncc2c(-c3ccn4nc(N)nc4c3)cc(C(=O)N3CCCC(Cc4ccc(F)cc4)C3)cc21 (centres unmarked) [Compound Z29, (4-(2-amino-[1,2,4]triazolo[1,5-a]pyridin-7-yl)-1-methyl-1H-indazol-6-yl)(3-(4-fluorobenzyl)piperidin-1-yl)methanone]	0.007 µM	12 nM	–
14 nM	COc1ncc(-c2ccc3nc(N)sc3c2)cc1C(=O)NC(C)c1ccccc1OC(F)(F)F (single isomer, unassigned) [Compound Z1-2]	–	6 nM	IC50 (U937 cells; 100 ng/ml human TNF-α and 25 μM Q-VD-Oph, 48 hours, CellTiter-Glo survival rate, read-out: U937 IC50): 0.028 µM

Structure (SMILES)	IC50 (RIPK1 enzyme)	IC50 (U937 cells; [1])	IC50 (L929 cells)	also measured
C[C@H](c1ccccc1OC(F)(F)F)N1CCc2ncc(-c3ccc4nc(N)sc4c3)cc2C1=O (single isomer, unassigned) [Compound Z54-2]	51 nM	–	< 3 nM	IC50 (U937 cells; Homo sapiens, U-937, 48 h, read-out: U937 IC50(μM), 100 ng/ml human TNF-α and 25 μM Q-VD-Oph, 48 hours, CellTiter-Glo survival rate): 0.001 µM
COc1ncc(-c2ccc3nc(NC(C)=O)sc3c2)cc1C(=O)NC(C)c1ccccc1OC(F)(F)F (single isomer, unassigned) [Compound Z5-1]	28 nM	–	–	IC50 (U937 cells; [2]): 0.005 µM
COc1ncc(-c2ccc3nc(NC(C)=O)sc3c2)cc1C(=O)NC(C)c1ccccc1OC(F)(F)F (single isomer, unassigned) [Compound Z5, 5-(2-acetylaminobenzothiazol-6-yl)-2-methoxy-N-(1-(2-(trifluoromethoxy)phenyl)ethyl)nicotinamide]	29 nM	–	–	IC50 (U937 cells; [2]): 0.015 µM

Reference: patent publication US20220177462A1, “SUBSTITUTED HETEROCYCLIC AMIDE COMPOUND AND PREPARATION METHOD THEREFOR AND PHARMACEUTICAL USE THEREOF” (GENFLEET THERAPEUTICS (SHANGHAI) INC., priority 2019, published 2022)
